Drawing on patent US10308615B2, “Heterocyclic compounds as inhibitors of Vanin-1 enzyme” (Pfizer Inc., priority 2015, dated 2019), this text covers IC50 for 30 molecules.

Experiment [1] concerns the target T1, human vanin-1 (Homo sapiens (Human), UniProt O95497). The experiment is described as follows: Human Vanin-1 Enzyme Assay 3. The format is biochemical. Particulars: 2 nM human vanin-1, 10 uM substrate, 15 min. Here is the method:
Human Vanin-1 Enzyme Assay 3.
(§1) The in vitro assay measures enzymatic cleavage of the fluorescently-labeled vanin substrate, pantetheine 7-amino-4-trifluoromethylcoumarin, by human vanin-1.
(§2) The vanin-1 protein was prepared in-house from a construct expressing the extracellular domain of human vanin-1 (GenBank ID NM_004666) preceded N-terminally by the honey bee melittin signal peptide, a GSG linker sequence, a His6X tag and a FLAG tag. The secreted, soluble enzyme was purified from the conditioned medium from a CHO cell line stably expressing the resulting protein. Enzyme purification was performed through sequential Ni NTA and size-exclusion chromatography steps.
On the day of the assay, dose response plates were prepared by diluting the inhibitors in DMSO at compound concentration 100-fold the final in-assay concentration. Concentration series were prepared by serially diluting in DMSO in a two-fold series for a total of 11 data points. Intermediate compound plates containing compound in 10% DMSO were then created by diluting the compounds 10-fold in assay buffer consisting of 50 mM Tris-HCl pH=8.0, 50 mM KCl, 0.005% Brij-35 and 1.5 mM cysteamine. To begin the assay 3 μL were transferred from the intermediate compound plate to the assay plate.
A working solution of human vanin-1 was prepared by diluting the enzyme stock to 2.5 nM in assay buffer. Next, 24 μL of the vanin-1 working solution were transferred to the assay plate. The enzyme reaction was then initiated by the addition of 3 μL of 100 μM pantetheine 7-amino-4-trifluoromethylcoumarin prepared in 5 uM acetic acid. The final concentrations in the assay were 2 nM human vanin-1 and 10 uM substrate. The final concentration of DMSO was 1%. The assay plates were incubated at room temperature for 15 minutes and before they were read on a Tecan Safire using a 405 nm excitation wavelength and a 505 nm emission wavelength for detection.

Experiment [2] concerns the target T1, human vanin-1. Briefly: Human Vanin-1 Enzyme Assay 1. The format is biochemical. The note with it: 25 pM human vanin-1, 50 uM pantetheine 7-amino-4-trifluoromethylcoumarin, 30 min preincubation, 60 min. The procedure: Human Vanin-1 Enzyme Assay 1.
as §1, §2
The test inhibitors were solubilized in DMSO to a stock concentration of 30 mM. On the day of the assay, dose response plates were prepared by diluting the inhibitors in DMSO at compound concentration 200-fold the final in-assay concentration. Intermediate concentrations were prepared by diluting in DMSO in a four-fold series for a total of 11 data points.
To prepare a working solution of human vanin-1, the enzyme was diluted to 33.3 pM in the assay buffer consisting of 50 mM Tris-HCl pH=8.0, 50 mM KCl, 0.005% Brij-35 and […] cysteamine. To begin the assay 100 nL was transferred from the compound plate to the assay plate. Next, 15 μL of the vanin-1 working solution were transferred to the assay plate. The inhibitor and enzyme were incubated at room temperature for 30 minutes. The enzyme reaction was then initiated by the addition of 5 μL of 200 μM pantetheine 7-amino-4-trifluoromethylcoumarin prepared in assay buffer. The final concentrations in the assay were 25 pM human vanin-1 and 50 uM substrate. The final concentration of DMSO was 0.5%. The assay plates were incubated for 60 minutes and before they were read on a Perkin Elmer EnVision Model 2103 using a 405 nm excitation wavelength and a 510 nm emission wavelength for detection.

Where only a bound is given, the exact number is not on record here.

T1 sequence (O95497 22-491): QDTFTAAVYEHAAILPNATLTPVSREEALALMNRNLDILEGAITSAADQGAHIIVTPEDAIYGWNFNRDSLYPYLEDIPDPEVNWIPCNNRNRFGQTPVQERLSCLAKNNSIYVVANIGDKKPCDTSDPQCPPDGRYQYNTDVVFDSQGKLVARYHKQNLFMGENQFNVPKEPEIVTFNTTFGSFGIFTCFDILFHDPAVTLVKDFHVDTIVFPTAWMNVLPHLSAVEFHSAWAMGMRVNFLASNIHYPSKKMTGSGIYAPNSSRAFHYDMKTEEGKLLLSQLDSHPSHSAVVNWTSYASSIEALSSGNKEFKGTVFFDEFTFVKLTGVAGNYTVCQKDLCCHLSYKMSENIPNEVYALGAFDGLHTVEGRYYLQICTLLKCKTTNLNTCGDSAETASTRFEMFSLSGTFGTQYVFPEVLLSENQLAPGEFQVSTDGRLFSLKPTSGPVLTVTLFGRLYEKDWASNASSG

The molecule `N#Cc1cccc(C(=O)c2cnc(NC3(c4cccnc4)CC3)nc2)c1` [Example 2, 3-[(2-{[1-(pyridin-3-yl)cyclopropyl]amino}pyrimidin-5-yl)carbonyl]benzonitrile] showed an IC50 against human vanin-1 [1] of 0.0021 µM.
`O=C(c1cnc(NCc2ccc(F)cc2)nc1)c1cccc(Cl)c1` [Example 36, (3-chlorophenyl){2-[(4-fluorobenzyl)amino]pyrimidin-5-yl}methanone]: on human vanin-1 [1], half-maximal inhibition (IC50) required 0.031 µM.
On the same count and under the same terms, the same measure for `N#Cc1ccc(CNc2ncc(C(=O)c3ccc(C(F)(F)F)cc3)cn2)cc1` [Example 50, 4-[({5-[4-(trifluoromethyl)benzoyl]pyrimidin-2-yl}amino)methyl] benzonitrile]: 0.205 µM.
As to `O=C(c1ccc(C(F)(F)F)cc1)c1cnc(NCc2cccnc2)nc1` [Example 51, {2-[(pyridin-3-ylmethyl)amino]pyrimidin-5-yl}[4-(trifluoromethyl)phenyl]methanone], the IC50 against human vanin-1 [1] came to 0.0449 µM.
For the molecule `O=C(c1ccc(Cl)cc1)c1cnc(NCc2ccc(F)cc2)nc1` [Example 52, (4-chlorophenyl){2-[(4-fluorobenzyl)amino]pyrimidin-5-yl}methanone], the IC50 against human vanin-1 [1] turned out to be 0.17 µM.
`COc1ccc(CNc2ncc(C(=O)c3ccc(OC)cc3)cn2)cc1` [Example 53, {2-[(4-methoxybenzyl)amino]pyrimidin-5-yl}(4-methoxyphenyl) methanone] displayed an IC50 at human vanin-1 [1] of 0.637 µM.
The molecule `O=C(c1ccc(C(F)(F)F)cc1)c1cnc(NCc2ccc(F)cc2)nc1` [Example 54, {2-[(4-fluorobenzyl)amino]pyrimidin-5-yl}[4-(trifluoromethyl)phenyl]methanone] had an IC50 against human vanin-1 [1] of 0.0354 µM. Compared with the last molecule, the IC50 is about 18-fold lower.
Molecule `COc1ccc(CNc2ncc(C(=O)c3ccc(C(F)(F)F)cc3)cn2)cc1` [Example 55, {2-[(4-methoxybenzyl)amino]pyrimidin-5-yl}[4-(trifluoromethyl)phenyl]methanone] had an IC50 against human vanin-1 [1] of less than 0.0165 µM.
Consider `O=C(c1cnc(NCc2ccncc2)nc1)c1cccc(C(F)(F)F)c1` [Example 56, {2-[(pyridin-4-ylmethyl)amino]pyrimidin-5-yl}[3-(trifluoromethyl)phenyl]methanone], for which the IC50 against human vanin-1 [1] turned out to be 0.0362 µM.
As to `O=C(c1ccc(Cl)cc1)c1cnc(NCc2ccc(Cl)cc2)nc1` [Example 57, {2-[(4-chlorobenzyl)amino]pyrimidin-5-yl}(4-chlorophenyl) methanone], the concentration for half-maximal inhibition (IC50) against human vanin-1 [1] was 0.889 µM.
`O=C(c1cnc(NCc2ccc(OC(F)(F)F)cc2)nc1)c1cccc(C(F)(F)F)c1` [Example 58, (2-{[4-(trifluoromethoxy)benzyl]amino}pyrimidin-5-yl)[3-(trifluoromethyl)phenyl]methanone] yielded an IC50 at human vanin-1 [1] of 0.133 µM.
The same measure, in the same setting: the figure for `COc1ccc(C(=O)c2cnc(NCc3ccccn3)nc2)cc1` [Example 60, (4-methoxyphenyl) {2-[(pyridin-2-ylmethyl)amino]pyrimidin-5-yl}methanone] is 0.0895 µM; for `O=C(c1cnc(NCc2ccc(Cl)cc2F)nc1)c1cccc(C(F)(F)F)c1` [Example 61, {2-[(4-chloro-2-fluorobenzyl)amino]pyrimidin-5-yl}[3-(trifluoromethyl)phenyl]methanone] it is 0.0249 µM; for `COc1ccc(CNc2ncc(C(=O)c3ccc(Cl)cc3)cn2)cc1` [Example 63, (4-chlorophenyl){2-[(4-methoxybenzyl)amino]pyrimidin-5-yl}methanone] it is 0.569 µM.
Consider `O=C(c1cnc(NC2(c3cccnc3)CC2)nc1)c1cccc(C(F)(F)F)c1` [Example 71, (2-{[1-(pyridin-3-yl)cyclopropyl]amino}pyrimidin-5-yl)[3-(trifluoromethyl)phenyl]methanone], for which, at human vanin-1 [1], the IC50 was 0.0238 µM.
As for `COc1ccc(C(=O)c2cnc(NCc3ccccc3)nc2)cc1` [Example 74, [2-(benzylamino)pyrimidin-5-yl](4-methoxyphenyl) methanone], the half-maximal inhibitory concentration (IC50) against human vanin-1 [1] amounted to 0.736 µM. Against the preceding molecule, the IC50 is about 31-fold higher.
At human vanin-1 [1], `COc1ccc(C(=O)c2cnc(NCc3ccc(OC(F)(F)F)cc3)nc2)cc1` [Example 75, (4-methoxyphenyl) (2-{[4-(trifluoromethoxy)benzyl]amino}pyrimidin-5-yl)methanone] registered an IC50 of 0.617 µM.
On to `N#Cc1ccc(CNc2ncc(C(=O)c3cccc(C(F)(F)F)c3)cn2)cc1` [Example 76, 4-[({5-[3-(trifluoromethyl)benzoyl]pyrimidin-2-yl}amino)methyl] benzonitrile], for which, at human vanin-1 [1], 0.112 µM corresponded to half-maximal inhibition (IC50).
As for `COc1ccc(C(=O)c2cnc(NCc3cccc(C#N)c3)nc2)cc1` [Example 77, 3-({[5-(4-methoxybenzoyl)pyrimidin-2-yl]amino}methyl) benzonitrile], the IC50 against human vanin-1 [1] is 0.998 µM.
The molecule `O=C(c1cnc(NCc2ccnnc2)nc1)c1cccc(C(F)(F)F)c1` [Example 122, {2-[(pyridazin-4-ylmethyl)amino]pyrimidin-5-yl}[3-(trifluoromethyl)phenyl]methanone] showed an IC50 at human vanin-1 [1] of 0.601 µM.
As to `N#Cc1cc(Cl)cc(C(=O)c2cnc(NC3(c4cncnc4)CC3)nc2)c1` [Example 146, 3-chloro-5-[(2-{[1-(pyrimidin-5-yl)cyclopropyl]amino}pyrimidin-5-yl)carbonyl] benzonitrile], the IC50 against human vanin-1 [2] stood at 0.026 µM.
At human vanin-1 [2], `NC(=O)c1cccc(C(=O)c2cnc(NC3(c4cnccn4)CC3)nc2)c1` [Example 147, 3-[(2-{[1-(pyrazin-2-yl)cyclopropyl]amino}pyrimidin-5-yl)carbonyl] benzamide] displayed an IC50 of 0.0557 µM.
Regarding `O=C(O)c1cccc(C(=O)c2cnc(NC3(c4cncnc4)CC3)nc2)c1` [Example 148, 3-[(2-{[1-(pyrimidin-5-yl)cyclopropyl]amino}pyrimidin-5-yl)carbonyl] benzoic acid], the IC50 at human vanin-1 [2] was determined as 0.26 µM.
Same read-out and setting: the same measure for `NC(=O)c1cccc(C(=O)c2cnc(NC3(c4cncnc4)CC3)nc2)c1` [Example 149, 3-[(2-{[1-(pyrimidin-5-yl)cyclopropyl]amino}pyrimidin-5-yl)carbonyl] benzamide]: 0.0256 µM.
`O=C(O)Cc1cccc(C(=O)c2cnc(NC3(c4cncnc4)CC3)nc2)c1` [Example 150, {3-[(2-{[1-(pyrimidin-5-yl)cyclopropyl]amino}pyrimidin-5-yl)carbonyl]phenyl}acetic acid] registered an IC50 on human vanin-1 [2] of 0.0239 µM.
Consider `N#Cc1cccc(C(=O)c2cnc(NC3(c4cnc(N)cn4)CC3)nc2)c1` [Example 151, 3-[(2-{[1-(5-aminopyrazin-2-yl)cyclopropyl]amino}pyrimidin-5-yl)carbonyl] benzonitrile], for which, on human vanin-1 [2], half-maximal inhibition (IC50) required 0.0278 µM.
Regarding `N#Cc1cccc(C(=O)c2cnc(NC3(c4ccc(C(N)=O)nc4)CC3)nc2)c1` [Example 152, 5-(1-{[5-(3-cyanobenzoyl)pyrimidin-2-yl]amino}cyclo-propyl)pyridine-2-carboxamide], the IC50 against human vanin-1 [2] turned out to be 0.0777 µM.
With `N#Cc1cccc(C(=O)c2cnc(NC3(c4ccc(O)nc4)CC3)nc2)c1` [Example 153, 3-[(2-{[1-(6-hydroxypyridin-3-yl)cyclopropyl]amino}pyrimidin-5-yl)carbonyl] benzonitrile], the IC50 against human vanin-1 [2] amounted to 0.307 µM.
The same measure, in the same setting: the same measure for `COc1ccc(C(=O)c2cnc(NC3(c4cncnc4)CC3)nc2)cc1C#N` [Example 161, 2-methoxy-5-[(2-{[1-(pyrimidin-5-yl)cyclopropyl]amino}pyrimidin-5-yl)carbonyl] benzonitrile]: 1.85 µM.
At human vanin-1 [2], `N#Cc1cccc(C(=O)c2cnc(NCC3CCC(O)CC3)nc2)c1` (stereo not drawn) [Example 162, 3-[(2-{[(4-hydroxycyclohexyl)methyl]amino}pyrimidin-5-yl)carbonyl] benzonitrile] came in with an IC50 of 0.0726 µM.
